Test results from ChEMBL document CHEMBL4251552, “Synthesis of piperazine sulfonamide analogs as diabetic-II inhibitors and their molecular docking study” (Eur J Med Chem, 2017).

Biological target: T1, Pancreatic alpha-amylase (Sus scrofa, UniProt P00690)
T1 sequence (P00690 whole entry): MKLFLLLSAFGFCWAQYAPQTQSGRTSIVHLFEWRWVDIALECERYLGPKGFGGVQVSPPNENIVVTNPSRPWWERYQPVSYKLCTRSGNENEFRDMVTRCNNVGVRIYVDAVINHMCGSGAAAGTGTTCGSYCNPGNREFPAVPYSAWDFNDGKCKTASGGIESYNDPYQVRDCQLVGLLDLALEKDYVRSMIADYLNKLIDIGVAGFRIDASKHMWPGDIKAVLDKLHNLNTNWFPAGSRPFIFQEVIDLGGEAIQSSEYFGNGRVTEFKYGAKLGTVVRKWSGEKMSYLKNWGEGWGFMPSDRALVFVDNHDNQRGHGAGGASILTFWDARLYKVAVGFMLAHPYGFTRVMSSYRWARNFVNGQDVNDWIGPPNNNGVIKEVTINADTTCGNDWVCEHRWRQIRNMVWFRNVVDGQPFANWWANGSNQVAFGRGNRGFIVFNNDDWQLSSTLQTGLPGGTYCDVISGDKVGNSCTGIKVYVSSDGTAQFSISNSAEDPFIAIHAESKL
Assay: Inhibition of porcine pancreatic alpha-amylase using starch as substrate preincubated for 10 mins followed by substrate addition measured after 10 mins by dinitrosalicylic acid color reagent based assay

Structure (SMILES) | IC50
Cc1ccc(CN2CCN(S(=O)(=O)c3ccc(Cl)c(Cl)c3)CC2)cc1 | 2.98 µM
Cc1ccc(CN2CCN(S(=O)(=O)c3ccc(Cl)cc3)CC2)cc1 | 2.35 µM
Cc1ccc(CN2CCN(S(=O)(=O)c3ccc([N+](=O)[O-])cc3[N+](=O)[O-])CC2)cc1 | 2.93 µM
Cc1ccc(CN2CCN(S(=O)(=O)c3cc(Cl)c(Cl)cc3Cl)CC2)cc1 | 3.52 µM
Cc1ccc(CN2CCN(S(=O)(=O)c3cccc([N+](=O)[O-])c3)CC2)cc1 | 2.75 µM
Cc1ccc(CN2CCN(S(=O)(=O)c3cccc(Br)c3)CC2)cc1 | 3.45 µM
Cc1ccc(CN2CCN(S(=O)(=O)c3ccc(Cl)cc3Cl)CC2)cc1 | 3.14 µM
Cc1ccc(CN2CCN(S(=O)(=O)c3cc(Cl)ccc3Cl)CC2)cc1 | 2.88 µM
Cc1ccc(CN2CCN(S(=O)(=O)c3ccccc3Cl)CC2)cc1 | 3.2 µM
Cc1ccc(CN2CCN(S(=O)(=O)c3ccccc3C)CC2)cc1 | 2.88 µM
Cc1ccc(CN2CCN(S(=O)(=O)c3ccc(Br)cc3)CC2)cc1 | 2.12 µM
Cc1ccc(CN2CCN(S(=O)(=O)c3ccc(C)cc3)CC2)cc1 | 2.87 µM
Cc1ccc(CN2CCN(S(=O)(=O)c3ccc(F)cc3)CC2)cc1 | 1.57 µM
Cc1ccc(CN2CCN(S(=O)(=O)c3cc(Cl)cc(Cl)c3)CC2)cc1 | 3.56 µM
Cc1ccc(CN2CCN(S(=O)(=O)c3ccc([N+](=O)[O-])cc3)CC2)cc1 | 2.82 µM
Cc1ccc(CN2CCN(S(=O)(=O)c3ccccc3[N+](=O)[O-])CC2)cc1 | 3.98 µM
Cc1ccc(CN2CCN(S(=O)(=O)c3cccc(Cl)c3Cl)CC2)cc1 | 2.67 µM
COc1ccc(S(=O)(=O)N2CCN(Cc3ccc(C)cc3)CC2)cc1 | 2.06 µM
Cc1ccc(CN2CCN(S(=O)(=O)c3ccccc3F)CC2)cc1 | 3.05 µM
